Literature values as cited in patent US20080279952A1, “Controlled-Release Flupirtine Compositions, Compacts, Kits and Methods of Making and Use Thereof” (priority 2007, published 2008).

Columns and labels:
[1] = in vivo
[2] = in vivo; remark: listed apart in the source

portion of the administered dose metabolized in the liver [2]	Compound	analgesic effect as percentage of that of flupirtine [1]
	CC(=O)Nc1ccc(NCc2ccc(F)cc2)nc1N [2-amino-3-acetamino-6-(4-fluor)-benzyl-amino-pyridine]	about 25%
Approximately 75%	CCOC(=O)Nc1ccc(NCc2ccc(F)cc2)nc1N [flupirtine]	
